Experimental data as given in US20240300914A1, “KC2-Type Lipids” (NanoVation Therapeutics Inc., priority 2021, published 2024).
In brackets after ≈: the same amount, converted by molar mass.

Columns and labels:
[1] = system: FVII; conditions: mice, siRNA formulations; Jayaraman et al. 2012; cited from earlier work
[2] = system: 22Rv1 cells modified to stably express luciferase; test: Luciferase knockdown by siRNA-LNPs in 22Rv1 cells; format: cell-based; conditions: Homo sapiens; siRNA-LNP 50/10/38.5/1.5, N/P 3; 22Rv1 luciferase cells; read-out: half maximal effective siRNA concentration (EC50)
Protocol: The LNPs contain 50/10/38.5/1.5 mol % of ionizable lipid/DSPC/chol/PEG-DMG (N/P=3) and the siRNA encodes luciferase.
An siRNA targeted against firefly luciferase purchased from Integrated DNA Technologies (IDT, Coralville, IA) was used to assess ability of LNP to knockdown firefly luciferase in a cell line.
LNP formulations containing the ionizable lipids, nor-KC2 or MC3, DSPC, cholesterol, and PEG-DMG were prepared containing siRNA encoding luciferase. The lipid nanoparticles comprise 50/10/38.5/1.5 mol % of ionizable lipid/DSPC/chol/PEG-DMG and the nitrogen-to-phosphorus ratio (N/P) was 3.

Row | Structure (SMILES) | ED50 for FVII gene silencing [1] | EC50 [2]
1 | CCCCC/C=C\C/C=C\CCCCCCCCC1(CCCCCCCC/C=C\C/C=C\CCCCC)OCC(CCN(C)C)O1 (stereo not drawn) [KC2] | 0.1 mg/kg | –
2 | CCCCC/C=C\C/C=C\CCCCCCCCC(CCCCCCCC/C=C\C/C=C\CCCCC)OC(=O)CCCN(C)C [MC3, dilinoleyl-methyl-4-dimethylaminobutyrate] | – | 0.131 µg/mL (≈ 0.204 µM)
3 | CCCCC/C=C\C/C=C\CCCCCCCC1(CCCCCCC/C=C\C/C=C\CCCCC)OCC(CCN(C)C)O1 (stereo not drawn) [nor-KC2, 2-(2,2-Di((8Z,11Z)-heptadeca-8,11-dien-1-yl)-1,3-dioxolan-4-yl)-N,N-dimethylethan-1-amine] | – | 0.137 µg/mL (≈ 0.224 µM)
